Test results as given in PMC3901259, “Characterisation of the Metabolites of 1,8-Cineole Transferred into Human Milk: Concentrations and Ratio of Enantiomers” (Metabolites, 2013).

Key:
[1] = design: method as in PMID 20425757; settings: one volunteer, sage tea, overall intake 1.02 mg 1,8-cineole; cited from earlier work
[2] = Quantification of 1,8-cineole metabolites in human milk (SAFE, GC-MS, internal standard and matrix calibration) after oral intake of 100 mg 1,8-cineole; type: in vivo; settings: for Absolute concentration in human milk: single determination
From the text: Human milk samples were provided voluntarily by breastfeeding mothers after intake of the non-prescription pharmaceutical Soledum® (Klosterfrau Healthcare Group, Cologne, Germany). Before the beginning of the study, the participants were informed verbally, as well as in written form, about the study procedure and purpose and they were told that withdrawing from the study was possible at any time without giving any reason. All volunteers gave written consent to the analysis of their milk samples and anonymous publication of the resulting data. The Ethical Committee of the Medical Faculty, University Erlangen-Nuremberg, approved the experimental procedures. Each participant was handed a copy of the Soldeum® package instructions and was advised to read it before capsule intake. They were also advised to withdraw from the study if any negative reactions such as medication allergies or interactions with other drugs they were taking were to be expected. Additionally, the volunteers were informed verbally about potential effects of the pharmaceutical preparation on breastfeeding, i.e. the risk of an altered milk flavour and rejection of the milk by the nursling. Accordingly, if this would happen, the mothers were recommended to feed their babies with stored human milk or formula milk products.
The milk donors were between the ages of 29 and 40 years (mean 34 years). During their participation in the study, their breast milk production had to be normal and in excess of their infants' needs, with no breast infections and no overall medical complaints present. Five participants were primiparous, three were multiparous and the breast milk samples were from 19 weeks to 19 months postpartum. For sampling, either electrical or mechanical breast pumps or manual expression techniques were applied, resulting in sample volumes between 10 and 100 mL. The samples were immediately subjected to sample preparation after a maximum storage time of five hours at 7 °C or were stored in a freezer at −20 °C for up to five days.
The participating volunteers were asked to ingest one Soledum® capsule, containing 100 mg 1,8-cineole, and to wait until they themselves or another person began to notice the eucalyptus-like odour on their breath. […] The donors were instructed to keep notes on the dates of capsule intake, first eucalyptus-like odour on their breath and exact sampling time. Unfortunately it was difficult for some mothers to detect the smell on their breath so they expressed the samples after some time without having noticed the smell, or reported having been unsure about the smell. […] Some of the donors repeated the whole experiment and some expressed more than one sample after the capsule intake, resulting in 14 samples in total, from 8 different mothers.
Extracts containing the volatile fraction of the human milk samples were prepared by Solvent Assisted Flavour Evaporation (SAFE) after addition of deuterated 1,8-cineole as internal standard (solution in dichloromethane), followed by 10 min of stirring, then another addition of dichloromethane (50% v/v), and 30 min of stirring. The resulting stable phase was distilled in the SAFE-apparatus at 50 °C and approximately 1x10^−4 mbar. The volatile fraction of the samples was frozen with liquid nitrogen. After thawing, it consisted of two phases, formed by the dichloromethane and by the water out of the milk. The water phase was extracted three times with dichloromethane, and the solvent phases were combined and dried over anhydrous Na2SO4. Finally the sample extracts were concentrated by microdistillation according to Bemelmans at 50 °C to a total volume of 50 to 200 μL.
For GC-MS analyses, an Agilent MSD quadrupole system (GC 7890A with MSD 5975C, Agilent Technologies, Waldbronn, Germany) coupled with a CIS 4C (cooled injection system) and an MPS 2 auto-sampler (Gerstel GmbH & Co. KG, Duisburg, Germany) were used. […]

[3] = Determination of the ratios of enantiomers of chiral metabolites in human milk on chiral GC capillaries; type: in vivo; settings: for Percentage E1: B-2b, B-2c of the same parent
From the text: The separation of the chiral metabolites of 1,8-cineole was successfully achieved using different β- or γ-cyclodextrin-based stationary phases (Rt-bDEXsa, Rt-bDEXse, Rt-bDEXsm and Rt-yDEXsa) for gas chromatographic analysis. Table S1, in the supplementary material, lists the usable separation phases and the respective retention indices (determined according to van den Dool and Kratz) for each pair of enantiomers. It was therefore decided to use the following capillaries for the analysis of the human milk samples: Rt-bDEXsm for separation of 2,3-dehydro-, α2,3-epoxy-, 2-oxo-, 3-oxo- and 9-hydroxy-1,8-cineole, and Rt-yDEXsa for separation of α2-hydroxy-, α3-hydroxy- and β2-hydroxy-1,8-cineole, under the GC conditions described in the experimental section.
For GC-MS analyses, an Agilent MSD quadrupole system (GC 7890A with MSD 5975C, Agilent Technologies, Waldbronn, Germany) coupled with a CIS 4C (cooled injection system) and an MPS 2 auto-sampler (Gerstel GmbH & Co. KG, Duisburg, Germany) were used. Data collection and analysis were performed with the MSD ChemStation E.02.00.493 (Agilent Technologies, Inc.) software. Quantification experiments were carried out on DB-FFAP and DB-5 capillaries (30 m length, 0.25 mm inner diameter, 0.25 µm film thickness, Agilent J&W GC Columns, USA), and for monitoring of the ratio of enantiomers the chiral capillaries Rt-bDEXsa, Rt-bDEXse, Rt-bDEXsm and Rt-yDEXsa (30 m length, 0.32 mm inner diameter, 0.25 µm film thickness, Restek GmbH, Bad Homburg, Germany) were utilised. Pre-columns of uncoated, deactivated fused silica (0.53 mm inner diameter, 0.5 to 3.5 m length) were used to ensure that no potentially present low-volatile residues could contaminate the analytical capillaries. The temperature programme of the column oven was as follows: 40 °C for 2 min, 4 °C/min up to 170 °C, 40 °C/min up to 230 °C (Rt-DEX capillaries), 240 °C (DB-FFAP) and 250 °C (DB-5), respectively, and hold time at end temperature of 5 to 10 min. As carrier gas, helium was used at a flow rate of 1.3 mL/min (velocity 41.1 cm/s). Injection of 1 or 2 µL was performed by the auto-sampler.
For the separation of the pairs of enantiomers of the chiral metabolites of 1,8-cineole, four different capillaries (Rt-bDEXsa, Rt-bDEXse, Rt-bDEXsm, and Rt-yDEXsa) were evaluated for optimisation of the peak-to-peak resolution of the enantiomers by injecting a mixture of all the metabolites in a dichloromethane solution and by varying the heating rate. Besides the separation of each pair of enantiomers from each other, it was also important to confirm that no other metabolite coeluted with any one of the enantiomers, because the milk samples would most probably contain all metabolites. Moreover, the separation conditions for the mixture of reference substances were also tested on some human milk sample extracts and modified accordingly, where necessary, to avoid coelution with interfering matrix compounds.
For calculation of the ratio of enantiomers (that is, the relative abundance of each enantiomer to the not separated mixture of enantiomers), the peak area of each enantiomer was divided by the sum of the peak areas of both enantiomers and multiplied by 100. With the known concentrations of the chiral metabolites in each milk sample, the absolute concentration of each single enantiomer was also calculated by multiplying the concentration with the respective percentage.

[4] = design: method as in doi:10.1002/cplu.201200253; settings: urine after 100 mg 1,8-cineole; cited from earlier work
[5] = sample A-1b (odour yes), oral 100 mg 1,8-cineole, values given with (<x) are approximations
[6] = sample B-1 (odour yes), oral 100 mg 1,8-cineole, values given with (<x) are approximations
[7] = sample B-2a (no odour), oral 100 mg 1,8-cineole
[8] = sample B-2b (odour yes), oral 100 mg 1,8-cineole, values given with (<x) are approximations
[9] = sample B-2c (no odour), oral 100 mg 1,8-cineole
[10] = sample D-2 (odour yes), oral 100 mg 1,8-cineole, values given with (<x) are approximations
[11] = sample E-2 (odour yes), oral 100 mg 1,8-cineole, values given with (<x) are approximations
[12] = sample G (odour yes), oral 100 mg 1,8-cineole, values given with (<x) are approximations
[13] = sample H (odour yes), oral 100 mg 1,8-cineole, values given with (<x) are approximations

| SMILES | Concentration in plasma [1] | Estimated maximum level in human milk (concentration calculated with the last calibration point, in parentheses) ([2]; sample A-1b (odour yes)) | Absolute concentration in human milk [2, 5] | Estimated maximum level in human milk (concentration calculated with the last calibration point, in parentheses) ([2]; sample B-1 (odour yes)) | Absolute concentration in human milk [2, 6] | Absolute concentration in human milk [2, 7] | Absolute concentration in human milk [2, 8] | Absolute concentration in human milk [2, 9] | Estimated maximum level in human milk (concentration calculated with the last calibration point, in parentheses) ([2]; sample D-2 (odour yes)) | Absolute concentration in human milk [2, 10] | Absolute concentration in human milk [2, 11] | Estimated maximum level in human milk (concentration calculated with the last calibration point, in parentheses) ([2]; sample G (odour yes)) | Absolute concentration in human milk [2, 12] | Estimated maximum level in human milk (concentration calculated with the last calibration point, in parentheses) ([2]; sample H (odour yes)) | Absolute concentration in human milk [2, 13] | Estimated maximum level in human milk (concentration calculated with the last calibration point, in parentheses) ([2]; sample B-2b (odour yes)) | Presence in human urine [4] | also measured |
| --- | --- | --- | --- | --- | --- | --- | --- | --- | --- | --- | --- | --- | --- | --- | --- | --- | --- | --- |
| CC12CCC(CC1)C(C)(CO)O2 (stereo not shown) [9-hydroxy-1,8-cineole] | 5.61 ng/mL | < 1.08 µg/kg | 0.46 µg/kg | < 1.57 µg/kg | 0.87 µg/kg | 0.18 µg/kg | 15.52 µg/kg | 0.15 µg/kg | < 1.82 µg/kg | 0.46 µg/kg | 16.95 µg/kg | < 3.33 µg/kg | 0.73 µg/kg | < 1.86 µg/kg | 1.83 µg/kg | – | – | Percentage E1 ([3]; one of the three samples B-2a): about 80%; Percentage E1 ([3]; the two other samples of B-2a): about 50% |
| CC12CCC(CC1=O)C(C)(C)O2 (stereo not shown) [2-oxo-1,8-cineole] | – | < 1.31 µg/kg | 0.53 µg/kg | < 1.89 µg/kg | 0.91 µg/kg | – | 0.34 µg/kg | 0.07 µg/kg | < 2.20 µg/kg | 0.85 µg/kg | 1.71 µg/kg | – | – | < 2.24 µg/kg | 0.86 µg/kg | < 2.37 µg/kg | could not be found | Estimated maximum level in human milk (concentration calculated with the last calibration point, in parentheses) ([2]; sample A-1a (no odour)): < 1.57 µg/kg; Absolute concentration in human milk ([2]; sample A-1a (no odour), oral 100 mg 1,8-cineole, values given with (<x) lie beyond calibration range, approximation): 0.13 µg/kg; Estimated maximum level in human milk (concentration calculated with the last calibration point, in parentheses) ([2]; sample E-2 (odour yes)): < 2.03 µg/kg; Absolute concentration in human milk ([2]; sample F (no odour), parent ingested two capsules, values given with (<x) are approximations): 2.71 µg/kg; Estimated maximum level in human milk (concentration calculated with the last calibration point, in parentheses) ([2]; sample F (no odour), two capsules): < 3.00 µg/kg; Percentage E2 in single samples (outliers) ([3]; human milk samples B-1, B-2b and B-2c, excluded from Table 3): 100% |
| CC1(C)OC2(C)CCC1C1OC12 (stereo not drawn) [a2,3-epoxy-1,8-cineole, α2,3-epoxy-1,8-cineole] | – | – | 2.48 µg/kg | – | 7.65 µg/kg | – | 2.18 µg/kg | 0.66 µg/kg | – | 4.13 µg/kg | 4.65 µg/kg | – | 4.52 µg/kg | – | 6.82 µg/kg | < 2.45 µg/kg | could not be found | Absolute concentration in human milk ([2]; sample D-1 (no odour), oral 100 mg 1,8-cineole, values given with (<x) are approximations): 1.35 µg/kg |
| CC1(C)OC2(CO)CCC1CC2 [7-hydroxy-1,8-cineole] | below the limit of quantitation | – | 0.56 µg/kg | – | 1.14 µg/kg | 0.21 µg/kg | 4.42 µg/kg | 0.18 µg/kg | – | 0.62 µg/kg | 5.19 µg/kg | < 1.06 µg/kg | 0.84 µg/kg | – | 1.87 µg/kg | – | – | – |
